Assay results published in patent US9932637B2, “Genetic polymorphisms associated with cardiovascular disorders and drug response, methods of detection and uses thereof” (CELERA CORPORATION, priority 2003, dated 2018).

Test system: patients with prior myocardial infarction (CARE study)
Test: CARE: association of SNPs with pravastatin treatment in cardiovascular events prevention (logistic regression, odds ratio pravastatin vs placebo by genotype; Table 8)
Format: in vivo, human
Excerpt: In order to identify genetic markers associated with acute coronary events (e.g. MI, stroke, unstable angina, congestive heart failure, etc.) or response to statin treatment for the prevention of coronary events, samples from the Cholesterol and Recurrent Events (CARE) study (a randomized multicentral double-blinded trial on secondary prevention of acute coronary events with pravastatin) (Sacks et al., 1991, Am. J. Cardiol. 68: 1436-1446) were genotyped. A well-documented myocardial infarction (MI) was one of the enrollment criteria for entry into the CARE study. Patients were enrolled in the CARE trial from 80 participating study centers. […] Patients were randomized to receive either 40 mg of pravastatin once daily or a matching placebo. The primary endpoint of the trial was death from coronary heart disease and the median duration of follow-up was 5.0 years (range, 4.0 to 6.2 years). […] Secondary endpoints of other related cardiovascular or metabolic disease events, and changes in clinical variables were also recorded in pravastatin-treated and placebo groups. All individuals included in the study had signed a written informed consent form and the study protocol was approved by the respective Institutional Review Boards (IRBs).
For genotyping SNPs in CARE patient samples, DNA was extracted from blood samples using conventional DNA extraction methods such as the QIA-amp kit from Qiagen. Genotypes were obtained on an ABI PRISM® 7900HT Sequence Detection PCR system (Applied Biosystems, Foster City, Calif.) by kinetic allele-specific PCR, similar to the method described by Germer et al. (Germer S., Holland M. J., Higuchi R. 2000, Genome Res. 10: 258-266).
Statistical analysis for association of SNPs with pravastatin treatment in cardiovascular events prevention (Table 8) was carried out using an overall logistic regression model that included an intercept, a parameter for the effect of a genotype containing two rare alleles versus a genotype containing no rare alleles, a parameter for the effect of a genotype containing one rare allele versus a genotype containing no rare alleles, a parameter for the effect of use of pravastatin versus the use of placebo, and parameters for the interaction effects between SNP genotypes and pravastatin use. The test of the overall model is a chi-square test with two degrees of freedom for analyses containing all three genotypes, and one degree of freedom for analyses containing two genotypes.
Effect sizes were estimated through odds ratios (pravastatin group versus placebo) for carriers of each genotype (groups of 0, 1, and 2 minor allele carriers). The effect was considered to be significant if p-value for testing whether any of the interactions between SNP genotypes and pravastatin use were <0.05. […] Odds ratios less than one indicate that the specific SNP allele has a protective effect and odds ratios greater than one indicate that the specific SNP allele has an adverse effect.

[1] = IL9 hCV3275199, All Patients, 0 Rare Alleles, Prava arm
[2] = IL9 hCV3275199, All Patients, 1 Rare Allele, Prava arm
[3] = IL9 hCV3275199, All Patients, 2 Rare Alleles, Prava arm
[4] = IL12A hCV16053900, All Patients, 0 Rare Alleles, Prava arm
[5] = IL12A hCV16053900, All Patients, 1 Rare Allele, Prava arm
[6] = IL12A hCV16053900, All Patients, 2 Rare Alleles, Prava arm
[7] = KLK14 hCV16044337, All Patients, 0 Rare Alleles, Prava arm
[8] = KLK14 hCV16044337, All Patients, 1 Rare Allele, Prava arm
[9] = KLK14 hCV16044337, All Patients, 2 Rare Alleles, Prava arm
[10] = LAMA5 hCV25629492, All Patients, 0 Rare Alleles, Prava arm
[11] = LAMA5 hCV25629492, All Patients, 1 Rare Allele, Prava arm
[12] = LAMA5 hCV25629492, All Patients, 2 Rare Alleles, Prava arm
[13] = LRP8 hCV190754, All Patients, Hosp. for Unstable Angina
[14] = MARK3 hCV25926771, All Patients, 0 Rare Alleles, Prava arm
[15] = MARK3 hCV25926771, All Patients, 1 Rare Allele, Prava arm
[16] = MJD hCV16189421, All Patients, 0 Rare Alleles, Prava arm

CC[C@H](C)C(=O)O[C@H]1C[C@H](O)C=C2C=C[C@H](C)[C@H](CC[C@@H](O)C[C@@H](O)CC(=O)O)[C@H]21 [pravastatin]
Nonfatal MI (Probable/Definite), n/total (%) [1]: (10.4%) | Nonfatal MI (def & prob), n/total (%) [1]: (9.8%) | Fatal/Nonfatal MI (def & prob), n/total (%) [2]: (6.0%) | MI (Fatal/Nonfatal), n/total (%) [2]: (6.0%) | Nonfatal MI (Probable/Definite), n/total (%) [2]: (5.7%) | Nonfatal MI (def & prob), n/total (%) [2]: (5.7%) | Fatal/Nonfatal MI (def & prob), n/total (%) [3]: (6.1%) | MI (Fatal/Nonfatal), n/total (%) [3]: (6.1%) | Nonfatal MI (Probable/Definite), n/total (%) [3]: (6.1%) | Nonfatal MI (def & prob), n/total (%) [3]: (6.1%) | Coronary Artery Bypass Graft, n/total (%) [4]: (4.9%) | Coronary Artery Bypass or Revascularization, n/total (%) [4]: (11.0%) | Coronary Artery Bypass Graft, n/total (%) [5]: (8.9%) | Coronary Artery Bypass or Revascularization, n/total (%) [5]: (16.2%) | Coronary Artery Bypass Graft, n/total (%) [6]: (7.2%) | Coronary Artery Bypass or Revascularization, n/total (%) [6]: (14.8%) | Coronary Artery Bypass Graft, n/total (%) [7]: (8.7%) | Definite Nonfatal MI, n/total (%) [7]: (7.1%) | Fatal CHD/Definite Nonfatal MI, n/total (%) [7]: (9.5%) | Fatal/Nonfatal MI (def & prob), n/total (%) [7]: (9.8%) | MI (Fatal/Nonfatal), n/total (%) [7]: (10.1%) | Nonfatal MI (Probable/Definite), n/total (%) [7]: (9.7%) | Nonfatal MI (def & prob), n/total (%) [7]: (9.1%) | Coronary Artery Bypass Graft, n/total (%) [8]: (6.2%) | Definite Nonfatal MI, n/total (%) [8]: (7.2%) | Fatal CHD/Definite Nonfatal MI, n/total (%) [8]: (9.9%) | Fatal/Nonfatal MI (def & prob), n/total (%) [8]: (10.0%) | MI (Fatal/Nonfatal), n/total (%) [8]: (10.2%) | Nonfatal MI (Probable/Definite), n/total (%) [8]: (9.4%) | Nonfatal MI (def & prob), n/total (%) [8]: (9.1%) | Coronary Artery Bypass Graft, n/total (%) [9]: (5.6%) | Definite Nonfatal MI, n/total (%) [9]: (4.4%) | Fatal CHD/Definite Nonfatal MI, n/total (%) [9]: (5.6%) | Fatal/Nonfatal MI (def & prob), n/total (%) [9]: (6.9%) | MI (Fatal/Nonfatal), n/total (%) [9]: (6.9%) | Nonfatal MI (Probable/Definite), n/total (%) [9]: (6.3%) | Nonfatal MI (def & prob), n/total (%) [9]: (6.3%) | Definite Nonfatal MI, n/total (%) [10]: (8.8%) | Fatal/Nonfatal MI (def & prob), n/total (%) [10]: (12.1%) | Nonfatal MI (def & prob), n/total (%) [10]: (11.3%) | Definite Nonfatal MI, n/total (%) [11]: (5.4%) | Fatal/Nonfatal MI (def & prob), n/total (%) [11]: (7.7%) | Nonfatal MI (def & prob), n/total (%) [11]: (7.4%) | Definite Nonfatal MI, n/total (%) [12]: (4.1%) | Fatal/Nonfatal MI (def & prob), n/total (%) [12]: (7.7%) | Nonfatal MI (def & prob), n/total (%) [12]: (5.4%) | Hosp. for Unstable Angina, n/total (%) (LRP8 hCV190754, All Patients, 0 Rare Alleles, Prava, n/total 98/560): (17.5%) | Hosp. for Unstable Angina, n/total (%) (LRP8 hCV190754, All Patients, 1 Rare Allele, Prava, n/total 100/712): (14.0%) | Hosp. for Unstable Angina, n/total (%) (LRP8 hCV190754, All Patients, 2 Rare Alleles, Prava, n/total 32/244): (13.1%) | Prava vs. Placebo Odds Ratio, 0 Rare Alleles [13]: 1.21 | Prava vs. Placebo Odds Ratio, 1 Rare Alleles [13]: 0.70 | Prava vs. Placebo Odds Ratio, 2 Rare Alleles [13]: 0.54 | Definite Nonfatal MI, n/total (%) [14]: (6.7%) | Fatal CHD/Definite Nonfatal MI, n/total (%) [14]: (9.9%) | Definite Nonfatal MI, n/total (%) [15]: (7.0%) | Fatal CHD/Definite Nonfatal MI, n/total (%) [15]: (9.1%) | Fatal/Nonfatal MI (def & prob), n/total (%) [16]: (8.4%) | Hosp. for Unstable Angina, n/total (%) [16]: (14.4%)
